Reference: ChEMBL document CHEMBL1201862, “PubChem BioAssay data set” (2004)
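Method: 48-hour compound exposure of cells in 96-well plates, five concentrations, linear interpolation of endpoints. GI50: concentration for 50% inhibition of growth.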 The source made the active and inactive calls. Rule as the data show it: active = GI50 up to about 1.1 µM and inactive = higher.

Columns and labels:
Test in all cases: NCI anticancer screen, dose series, 48 h
[1] = tested on: A549
[2] = tested on: SK-MEL-5
[3] = tested on: SK-OV-3
[4] = tested on: HL-60
[5] = tested on: OVCAR-4
[6] = tested on: SF-268
[7] = tested on: ACHN
[8] = tested on: HCT-15
[9] = tested on: SK-MEL-28
[10] = tested on: COLO 205
[11] = tested on: SR
[12] = tested on: M14
[13] = tested on: MDA-N
[14] = tested on: HCT-116
[15] = tested on: MDA-MB-231
[16] = tested on: A498
[17] = tested on: SK-MEL-2
[18] = tested on: UACC-62
[19] = tested on: NCI-H23

Measured: GI50

CN(C)C12C=CC=CC3=C(c4ccccc4)C(c4ccccc4)=C(c4ccccc4)C31c1ccccc1C2 (centres undefined)
inactive: [1] > 100 µM | [2] > 100 µM | [3] > 100 µM | [4] > 100 µM | [5] > 100 µM | [6] > 100 µM | [7] > 100 µM | [9] > 100 µM | [10] > 100 µM | [11] > 100 µM | [12] > 100 µM | [13] > 100 µM | [14] > 100 µM | [15] > 100 µM
> 100 µM: [8]

COc1ccc(/N=C2\C(=N/c3ccc(OC)cc3)N(c3ccc(N(C)C)cc3)C(=S)N2c2ccc(OC)cc2)cc1
inactive: [16] > 100 µM | [1] > 100 µM | [2] > 100 µM | [3] > 100 µM | [4] > 100 µM | [5] > 100 µM | [6] > 100 µM | [7] > 100 µM | [9] > 100 µM | [10] > 100 µM | [17] > 100 µM | [18] > 100 µM | [12] > 100 µM | [13] > 100 µM | [19] > 100 µM | [14] > 100 µM | [15] > 100 µM
> 100 µM: [8]

CCc1cn2c(/C=N/N=C(N)N)c(-c3cc(C)c(Cl)cc3Cl)nc2s1
inactive: [16] 1.77 µM | [1] 1.67 µM | [2] 1.63 µM | [3] 1.7 µM | [4] 1.82 µM | [5] 1.42 µM | [6] 1.98 µM | [7] 1.68 µM | [9] 1.48 µM | [10] 1.64 µM | [17] 1.82 µM | [11] 1.56 µM | [18] 1.42 µM | [12] 1.65 µM | [19] 1.77 µM
active: [14] 0.785 µM | [15] 0.865 µM
1.62 µM: [8]

CCOC(=O)C(C)(C(=O)OCC)/C(Cl)=C\Cl
inactive: [1] 33.7 µM | [2] > 100 µM | [3] > 100 µM | [4] > 100 µM | [5] > 100 µM | [6] > 100 µM | [7] > 100 µM | [9] > 100 µM | [10] > 100 µM | [11] > 100 µM | [18] > 100 µM | [12] > 100 µM | [13] > 100 µM | [19] > 100 µM | [14] > 100 µM | [15] > 100 µM

O=C(NCCO)c1c(O)c2ccccc2[nH]c1=O
inactive: [16] > 100 µM | [1] > 100 µM | [2] > 100 µM | [4] > 100 µM | [5] > 100 µM | [6] > 100 µM | [7] > 100 µM | [9] > 100 µM | [10] > 100 µM | [11] > 100 µM | [13] > 100 µM | [19] > 100 µM | [14] > 100 µM | [15] > 100 µM
62.2 µM: [8]

Cc1cc(S(=O)(=O)NC2=Nc3cccc4cccc(c34)N2)c(S)cc1Cl
active: [13] 0.316 µM
inactive: [1] 55.1 µM | [2] 60.5 µM | [4] 77.4 µM | [5] 85.9 µM | [6] > 100 µM | [7] > 100 µM | [9] > 100 µM | [10] 84.7 µM | [17] > 100 µM | [11] 60 µM | [18] > 100 µM | [12] 65.2 µM | [14] 18.1 µM | [15] > 100 µM
> 100 µM: [8]

CC[C@]12C=CCN3CC[C@@]4(c5cc(Br)c(OC)cc5N(C)[C@H]4[C@@](O)(C(=O)NN)[C@@H]1O)[C@@H]32
inactive: [16] 36.8 µM | [1] > 100 µM | [2] 49.5 µM | [3] 75.7 µM | [4] 37.9 µM | [5] 96.6 µM | [6] 56.1 µM | [7] 79.3 µM | [9] 67.3 µM | [10] > 100 µM | [17] 29.8 µM | [18] 40.7 µM | [12] 55.5 µM | [13] 48.1 µM | [19] 68.1 µM | [14] > 100 µM | [15] 70.3 µM
> 100 µM: [8]

C[C@]12CC[C@H]3[C@@H](CC=C4C[C@@H](O)CC[C@@]43C)[C@@H]1C[C@H](N1CCOCC1)[C@@H]2O
inactive: [16] 89.3 µM | [1] > 100 µM | [2] 77.3 µM | [3] > 100 µM | [4] 48.5 µM | [5] > 100 µM | [6] > 100 µM | [7] > 100 µM | [9] > 100 µM | [10] > 100 µM | [17] > 100 µM | [18] > 100 µM | [12] > 100 µM | [13] > 100 µM | [19] > 100 µM | [14] > 100 µM | [15] 54.3 µM
> 100 µM: [8]
